Data reported in ChEMBL document CHEMBL4673222, “Discovery of a Bioactive Inhibitor with a New Scaffold for Cystathionine γ-Lyase” (J Med Chem, 2019).
Calls of active or inactive are those of the source. No cut-off for these calls is given here.

What was measured:
[1] = biological target: T1, Cystathionine gamma-lyase (Homo sapiens, UniProt P32929); test: Inhibition of human CSE using L-Cys as the substrate by tandem well based HTS assay
Homo sapiens [2] = species: Homo sapiens; test: Selectivity index, ratio of IC50 for human CBS to IC50 for human CSE
[3] = Binding affinity to H2S assessed as absorbing of released H2S up to 100 uM in presence of NaHS as H2S donor; settings: dose microM <=100
[4] = biological target: T1, Cystathionine gamma-lyase; test: Inhibition of human CSE using L-Cys as the substrate in presence of 0.025% Triton X-100 by tandem well based HTS assay
[5] = Binding affinity to H2S assessed as absorbing of released H2S at 200 uM in presence of NaHS as H2S donor
[6] = biological target: T1, Cystathionine gamma-lyase; test: Inhibition of human CSE using H-Cys as the substrate by LC/MS/MS-based assay
[7] = biological target: T1, Cystathionine gamma-lyase; test: Inhibition of human CSE using H-Cys as the substrate by tandem well based HTS assay
Homo sapiens [8] = species: Homo sapiens; test: Selectivity index, ratio of IC50 for human CBS to IC50 for human DDC
[9] = biological target: T1, Cystathionine gamma-lyase; test: Inhibition of human CSE using L-Cys as the substrate in presence of 0.01% Triton X-100 by tandem well based HTS assay
[10] = biological target: Cystathionine gamma-lyase (Mus musculus) (UniProt Q8VCN5); test: Inhibition of CSE in mouse RAW264.7 cells assessed as reduction in amount of released H2S level at >= 200 uM by lead acetate method; type: cell-based; settings: dose microM >=200
Cystathionine gamma-lyase (Mus musculus), sequence (Q8VCN5 whole entry): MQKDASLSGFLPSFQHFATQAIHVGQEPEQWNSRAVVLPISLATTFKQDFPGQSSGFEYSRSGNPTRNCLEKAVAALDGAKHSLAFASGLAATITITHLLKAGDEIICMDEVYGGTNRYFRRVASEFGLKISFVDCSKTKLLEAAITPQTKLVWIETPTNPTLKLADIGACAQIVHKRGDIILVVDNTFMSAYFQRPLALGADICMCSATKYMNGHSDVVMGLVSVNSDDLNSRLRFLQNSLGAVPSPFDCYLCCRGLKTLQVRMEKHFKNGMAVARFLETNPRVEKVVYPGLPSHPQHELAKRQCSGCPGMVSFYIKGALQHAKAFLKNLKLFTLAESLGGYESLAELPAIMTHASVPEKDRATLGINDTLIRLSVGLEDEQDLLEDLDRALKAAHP

[11] = biological target: T1, Cystathionine gamma-lyase; test: Inhibition of human CSE expressed in mouse RAW264.7 cells assessed as reduction in amount of released H2S level at >=200 uM by lead acetate method; type: cell-based; settings: dose microM >=200
[12] = biological target: Cystathionine gamma-lyase (Mus musculus, UniProt Q8VCN5); test: Inhibition of CSE in mouse RAW264.7 cells assessed as reduction in endogenous H2S level by AzMC probe based fluorescence assay; type: cell-based
Cystathionine gamma-lyase (Mus musculus, UniProt Q8VCN5), sequence (Q8VCN5 whole entry): as above

[13] = biological target: T1, Cystathionine gamma-lyase; test: Binding affinity to human CSE by ITC analysis
[14] = biological target: T1, Cystathionine gamma-lyase; test: Competitive inhibition of human CSE using varying levels of L-Cys as substrate and fixed PLP levels
[15] = biological target: T1, Cystathionine gamma-lyase; test: Non-covalent reversible inhibition of human CSE

T1 sequence (P32929 whole entry): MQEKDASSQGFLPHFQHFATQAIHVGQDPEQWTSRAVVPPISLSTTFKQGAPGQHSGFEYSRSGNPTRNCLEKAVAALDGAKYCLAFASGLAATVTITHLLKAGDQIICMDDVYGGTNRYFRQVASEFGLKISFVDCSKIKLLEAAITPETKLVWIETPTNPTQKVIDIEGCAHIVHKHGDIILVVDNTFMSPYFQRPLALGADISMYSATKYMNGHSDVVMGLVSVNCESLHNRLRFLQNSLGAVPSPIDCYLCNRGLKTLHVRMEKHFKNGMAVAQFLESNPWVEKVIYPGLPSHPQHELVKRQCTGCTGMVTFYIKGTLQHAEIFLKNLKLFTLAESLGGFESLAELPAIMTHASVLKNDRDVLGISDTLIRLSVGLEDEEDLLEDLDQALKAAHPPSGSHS

CN1CCN(C2=C(Cl)C(=O)c3ccccc3C2=O)CC1
IC50 [1]: < 50 µM

O=[N+]([O-])c1ccc(O)c2ncccc12 [NITROXOLINE]
Ratio IC50 (Homo sapiens [2]): 62 | Activity [3]: inactive | inhibition [4]: Active | Activity [5]: 35% | IC50 [6]: 6 µM | IC50 [7]: 10.7 µM | Ratio IC50 (Homo sapiens [8]): 12 | IC50 [1]: 8 µM | inhibition [9]: Active

O=C1C(Cl)=C(NCCCCCCNC2=C(Cl)C(=O)c3ccccc3C2=O)C(=O)c2ccccc21
IC50 [1]: < 50 µM

COC(=O)C1=CC(=C(c2ccc(O)c(C(=O)OC)c2)c2ccc(O)c(C(=O)OC)c2)C=CC1=O
IC50 [1]: > 200 µM

C#CCC(N)C(=O)O (racemic)
inhibition [10]: Active | inhibition [11]: Active | IC50 [12]: 371 µM

COc1cccc2c1C(=O)C1=C(C[C@H](CC(=O)O)O[C@H]1C)C2=O
Ratio IC50 (Homo sapiens [2]): 161 | Kd [13]: 3.8 µM | Activity [3]: inactive | Ki [14]: 4.9 µM | inhibition [4]: Active | Activity [5]: 20% | IC50 [15]: 6.2 µM | IC50 [6]: 13.5 µM | IC50 [7]: 7.4 µM | Ratio IC50 (Homo sapiens [8]): 32 | IC50 [1]: 6.2 µM | inhibition [9]: Active

CC1=CC(=C(c2cc(C)c(O)c(C(=O)O)c2)c2cc(C)c(O)c(C(=O)O)c2)C=C(C(=O)O)C1=O
IC50 [1]: 59.9 µM

Nc1ccc(O)c(C(=O)O)c1 [MESALAMINE]
IC50 [1]: > 200 µM

CCNC1=CC(=O)c2ncccc2C1=O
IC50 [1]: < 50 µM

NC1=CC(=O)c2cccnc2C1=O
IC50 [1]: < 50 µM

O=C(O)C1=C/C(=C(\c2ccccc2)c2cc(C(=O)O)c(O)c3ccccc23)c2ccccc2C1=O
IC50 [1]: > 200 µM

Cc1nc2c(N)nc(N)nc2nc1O
IC50 [1]: < 50 µM

O=C1C=C/C(=N/C2C(=O)c3ccccc3C(=O)C2Cl)C=C1Cl (stereo not given)
IC50 [1]: < 50 µM

CC1OC2CC(=O)OC2C2=C1C(=O)c1c(O)cccc1C2=O (stereo not given)
IC50 [1]: < 50 µM
